Reference: ChEMBL document CHEMBL1667847, “Quinazolines with intra-molecular hydrogen bonding scaffold (iMHBS) as PI3K/mTOR dual inhibitors” (Bioorg Med Chem Lett, 2011)

How the values were obtained:
[1] = target: T1, Phosphatidylinositol 4,5-bisphosphate 3-kinase catalytic subunit alpha isoform (Homo sapiens, UniProt P42336); assay: Inhibition of PI3Kalpha by fluorescene polarization assay
[2] = target: T2, Serine/threonine-protein kinase mTOR (Homo sapiens, UniProt P42345); assay: Inhibition of mTOR
[3] = target: T1, Phosphatidylinositol 4,5-bisphosphate 3-kinase catalytic subunit alpha isoform; assay: Inhibition of PI3Kalpha-phosphorylation at S473 residue in human BT20 cells; assay type: cell-based, BT-20
[4] = target: T2, Serine/threonine-protein kinase mTOR; assay: Inhibition of mTOR at 1 uM

T1 sequence (P42336 whole entry, canonical isoform): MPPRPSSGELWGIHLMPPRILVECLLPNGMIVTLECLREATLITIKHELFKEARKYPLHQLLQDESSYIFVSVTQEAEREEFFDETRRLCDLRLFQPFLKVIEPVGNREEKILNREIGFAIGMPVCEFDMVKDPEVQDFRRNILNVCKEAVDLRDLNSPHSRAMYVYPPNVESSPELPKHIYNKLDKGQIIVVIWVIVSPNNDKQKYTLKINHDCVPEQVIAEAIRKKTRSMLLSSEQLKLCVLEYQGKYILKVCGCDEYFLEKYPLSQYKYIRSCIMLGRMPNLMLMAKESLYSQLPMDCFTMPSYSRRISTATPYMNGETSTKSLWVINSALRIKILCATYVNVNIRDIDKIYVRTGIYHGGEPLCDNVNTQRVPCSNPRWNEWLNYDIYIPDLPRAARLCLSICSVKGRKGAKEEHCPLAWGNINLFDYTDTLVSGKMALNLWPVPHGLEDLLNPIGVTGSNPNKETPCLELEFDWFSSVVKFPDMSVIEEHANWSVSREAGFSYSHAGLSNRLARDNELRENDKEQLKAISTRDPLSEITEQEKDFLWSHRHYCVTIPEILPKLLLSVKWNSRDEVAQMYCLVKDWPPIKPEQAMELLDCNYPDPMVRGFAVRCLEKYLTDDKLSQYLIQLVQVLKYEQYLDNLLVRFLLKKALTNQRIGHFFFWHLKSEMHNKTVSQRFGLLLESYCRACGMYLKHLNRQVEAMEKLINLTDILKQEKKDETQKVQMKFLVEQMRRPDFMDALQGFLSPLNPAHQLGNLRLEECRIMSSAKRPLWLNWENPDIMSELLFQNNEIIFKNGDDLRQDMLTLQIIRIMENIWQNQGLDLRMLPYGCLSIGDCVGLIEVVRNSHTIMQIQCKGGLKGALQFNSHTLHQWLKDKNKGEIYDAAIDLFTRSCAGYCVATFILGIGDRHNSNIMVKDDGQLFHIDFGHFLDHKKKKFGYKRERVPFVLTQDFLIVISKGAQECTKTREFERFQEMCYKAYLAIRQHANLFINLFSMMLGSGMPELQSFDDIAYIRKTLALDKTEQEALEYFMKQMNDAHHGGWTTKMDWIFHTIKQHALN

Row | SMILES | Ki [1] [nM] | Ki [2] [nM] | IC50 [3] [nM] | inhibition [4] [%]
1 | Cc1ccc(NC(=O)c2c(C)ccc3c(N)nc(C)nc23)cn1 | 4550 | 3250 | – | –
2 | Cc1nc(N)c2ccc(C)c(C(=O)Nc3cnc4[nH]ccc4c3)c2n1 | 631 | 216 | – | –
3 | Cc1nc(N)c2ccc(C)c(C(=O)Nc3ccc(N(C)C)nc3)c2n1 | > 100 | – | – | –
4 | Cc1nc(N)c2cc(CN3CCOCC3)cc(C(=O)Nc3ccn[nH]3)c2n1 | 15 | 13 | – | –
5 | COc1ccc(NC(=O)c2c(C)ccc3c(N)nc(C)nc23)cn1 | > 100 | 1000 | – | 15
6 | Cc1nc(N)c2cccc(C(=O)Nc3ccc(N(C)C)nc3)c2n1 | 54 | 1000 | – | 57
7 | Cc1cc(C(=O)Nc2ccc(N(C)C)nc2)c2nc(C)nc(N)c2c1 | 12 | 162 | – | –
8 | Cc1nc(N)c2ccc(C)c(C(=O)Nc3ccn[nH]3)c2n1 | 4550 | 984 | – | –
9 | Cc1nc(N)c2cc(CN(C)C)cc(C(=O)Nc3ccn[nH]3)c2n1 | 188 | 1330 | – | –
10 | Cc1nc(N)c2ccc(C)c(C(=O)Nc3cn[nH]c3)c2n1 | > 100 | – | – | –

Stronger by Ki [1], values ahead:

Row | Ki [1] [nM] | Ki [2] [nM] | IC50 [3] [nM] | inhibition [4] [%] | SMILES
11 | 7 | 3 | 35 | – | Cc1cc(C(=O)Nc2ccn[nH]2)c2nc(C)nc(N)c2c1
12 | 6 | 21 | – | – | Cc1nc(N)c2cccc(C(=O)Nc3cn[nH]c3)c2n1
13 | 5 | 84 | 24 | – | Cc1cc(C(=O)Nc2cn[nH]c2)c2nc(C)nc(N)c2c1
14 | 1 | 5 | – | – | Cc1nc(N)c2cccc(C(=O)Nc3cnc4[nH]ccc4c3)c2n1
15 | 0.5 | 265 | – | – | COc1ccc(NC(=O)c2cc(C)cc3c(N)nc(C)nc23)cn1
16 | 0.5 | 66 | 88 | – | Cc1cc(C(=O)Nc2ccc(C)nc2)c2nc(C)nc(N)c2c1
17 | 0.5 | 31 | 112 | – | Cc1ccc(NC(=O)c2cccc3c(N)nc(C)nc23)cn1
18 | 0.3 | 17 | 43 | – | Cc1cc(C(=O)Nc2cnc3[nH]ccc3c2)c2nc(C)nc(N)c2c1
